This data set concerns Sprague Dawley rats. As to conditions: for Liver Necrosis / Score (histopathology liver necrosis severity score): rat, intraperitoneal; for Liver Necrosis: 72 hours after treatment; for Score (histopathology liver necrosis severity score): 72 hours, 1 = not remarkable, 2 and higher increasing severity. Summed up: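 Toxicity calls (necrosis present or absent at 72 h) and histopathology scores were correlated with tissue gene expression from Crl:CD Sprague Dawley rats. Animals, usually 3 treated with compound by i.p. route and 3 given vehicle, were killed at 6, 24 or 72 h and tissues frozen immediately in liquid nitrogen.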

Like-named read-outs stand apart in the source and are kept apart here.

`CCC1(c2ccccc2)C(=O)NC(=O)NC1=O` [phenobarbital]: the “Liver Toxicity Necrosis Classification” value by setting is: (72 h, dose 20) “no”; (72 h, dose 80) “no”; (compound-dose group at 72 h, dose 20) “no”; (compound-dose group at 72 h, dose 80) “no”; (compound-dosegroup at 72 h, dose 20) “no”; (compound-dosegroup at 72 h, dose 80) “no”. The “Liver Necrosis” value is on record as “no” (dose 20 mg/kg) and “no” (dose 80 mg/kg). Also, the “Score (histopathology liver necrosis severity score)” value (dose 20 mg/kg) turned out to be 1 and the “Score (histopathology liver necrosis severity score)” value (dose 80 mg/kg) turned out to be 1.
